Reference: patent US20040106584A1, “Prophylactic docosahexaenoic acid therapy for patients with subclinical inflammation” (priority 2002, published 2004)

Assays:
obese diabetic mice = settings: 100 mg/kg body weight, but not normal or lean diabetic mice; cited from earlier work
[1] = molecular target: T1, platelet glycoprotein IIb/IIa receptors (Homo sapiens, UniProt P05106+P08514); settings: cited from earlier work
T1 construct: host or cells: platelets in vivo (endogenous receptor)

[2] = cited from earlier work
[3] = in vivo; cited from earlier work
[4] = system: ADP-induced platelet aggregation; settings: oral loading dose of 300-600 mg; cited from earlier work
C-reactive protein (CRP) = test: Clinical study of DHASCO capsules co-administered with statin in dyslipidemia patients: CRP levels; type: in vivo, human; settings: 20 patients treated with DHA, 200 or 1000 mg daily
Method: In a clinical study DHASCO capsules (which contained DHA as a triglyceride oil extracted from Crypthecodinium cohnii cells, obtained from Martek Biosciences Corp., Columbia, Md.) were co-administered with statin medication to patients with dyslipidemia. Hyperlipidemic patients already being treated with a stable dose of a statin medication but still failing to meet NCEP guidelines for LDL-cholesterol or triglycerides were treated with either 200 or 1000 mg of DHA daily for 12 months. HbAlc levels (glycosylated hemoglobin, a marker of glycemic control) were measured in plasma at baseline and after 8 or 12 months of treatment.
Reduction in CRP of this extent is clinically significant, and may be correlated with a benefit of reduced risk of Type II diabetes onset, independent of other Type II risk factors.

## CC/C=C\C/C=C\C/C=C\C/C=C\C/C=C\C/C=C\CCC(=O)OCC [DHA ethyl ester]
Obese diabetic mice
  blood glucose: reduced
  insulin sensitivity: enhanced
  plasma triglycerides: reduced

## abciximab: humanized mouse antibody fragment with a high binding affinity for the glycoprotein IIb/IIa receptor
[1]; 24 hours after cessation of an infusion
  persistent blockade of platelet glycoprotein IIb/IIa receptors: more than 50%
[1]; after cessation of an infusion
  time to recovery of platelet function: 2 days

## CC(=O)Oc1ccccc1C(=O)O [Aspirin, acetylsalicylic acid]
[2]; patients at high risk of such an event
  reduction of the risk of serious vascular events: about a quarter

## Clc1ccccc1CN1CCc2sccc2C1 [Ticlopidine]
[3]
  risk of skin rash and diarrhea compared with aspirin: doubles

## COC(=O)[C@H](c1ccccc1Cl)N1CCc2sccc2C1 [Clopidogrel]
[2]; high-risk patients
  reduction of the risk of serious vascular events compared with aspirin: about 10%
[4]
  time to detectable inhibition of ADP-induced platelet aggregation: 2 h
  time to maximal inhibition of ADP-induced platelet aggregation: 6 h
[3]
  risk of skin rash and diarrhea compared with aspirin: about a third

## CC/C=C\C/C=C\C/C=C\C/C=C\C/C=C\C/C=C\CCC(=O)O [DHA, docosahexaenoic acid]
C-reactive protein (CRP)
  overall reduction in CRP level: 15%
